Biological target: Tyrosine-protein kinase Fgr (Homo sapiens) (UniProt P09769)
Test: inhibitors of human FGR tyrosine kinase activity – biochemical, Z'-LYTE, FRET readout, direct format, dose response (AID 1671277)
Conditions: recombinant FGR

Sequence of Tyrosine-protein kinase Fgr (Homo sapiens) (P09769 whole entry, looked up): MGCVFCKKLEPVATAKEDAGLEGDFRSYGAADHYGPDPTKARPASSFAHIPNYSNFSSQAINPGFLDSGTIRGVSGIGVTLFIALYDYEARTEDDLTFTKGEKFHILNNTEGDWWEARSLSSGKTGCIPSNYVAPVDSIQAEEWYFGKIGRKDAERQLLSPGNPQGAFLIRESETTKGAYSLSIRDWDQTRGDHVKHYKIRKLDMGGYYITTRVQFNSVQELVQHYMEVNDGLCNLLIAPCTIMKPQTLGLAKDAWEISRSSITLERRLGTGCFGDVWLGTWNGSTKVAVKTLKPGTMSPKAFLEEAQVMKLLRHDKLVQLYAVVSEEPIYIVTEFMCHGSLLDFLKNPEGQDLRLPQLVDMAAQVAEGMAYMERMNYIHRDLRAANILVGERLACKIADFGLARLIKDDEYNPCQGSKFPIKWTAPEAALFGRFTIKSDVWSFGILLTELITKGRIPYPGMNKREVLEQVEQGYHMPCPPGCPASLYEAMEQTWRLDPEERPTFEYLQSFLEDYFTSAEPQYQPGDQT

IC50: 919 nM
Compound: COc1cc2ncnc(Nc3cccc(Cl)c3)c2cc1OC

From PubChem BioAssay AID1671277
